Reference: US20250206732A1, “COMPOUNDS AND METHODS FOR THE TARGETED DEGRADATION OF KRAS” (Arvinas Operations, Inc., priority 2022, published 2025)

Biological target: T1, AsPC-1 HiBiT-KRASG12D (Homo sapiens, UniProt P01116, G12D)
T1 construct: insert the HiBiT tag onto the N-terminus of one or more of the endogenous KRAS alleles; endogenous in cells; host or cells: AsPC-1 (ATCC CRL-1682), CRISPR-Cas9 knock-in clone, one tagged allele
Experiment: HiBiT degradation assay (G12D), AsPC-1 HiBiT-KRASG12D cells
Assay type: cell-based
Conditions: 24 hours treatment; for Dmax: ASPC1, AsPC-1 HiBiT-KRASG12D cells, maximum degradation observed; for DC50: AsPC-1 HiBiT-KRASG12D cells, HiBiT luminescence
Text: Reagents. […] SW1573 cells are homozygous for the G12C mutation in KRAS, AsPC-1 cells are homozygous for the G12D mutation, and SW620 cells are homozygous for the G12V mutation. […] For degradation assays, 384 well plates were used. Alamar blue was purchased from ThermoFisher scientific (A50101) and used according to manufacturer instructions. The Nano-Glo® HiBiT Lytic Detection System and Nano-Glo® HiBiT Blotting System were purchased from Promega (#N3050 and #N2410) and used according to manufacturer instructions.
To create the AsPC-1 HiBiT-KRASG12D cell line, CRISPR-Cas9 was used to insert the HiBiT tag onto the N-terminus of one or more of the endogenous KRAS alleles. […] After knock-in of the tag, individual clones were isolated by single cell dilution and screened for HiBiT insertion by PCR. […] This clone was used in further studies.
HiBiT degradation assays (G12C and G12D). […] All assays were performed in triplicate. Cells were treated with compounds for 24 hours at 37° C. in an incubator containing 5% CO2. Following treatment, alamar blue was used to determine if any compounds led to a loss in cell viability after 24 hours. The 10× alamar blue reagent was added to a final concentration of 1× as recommended by the manufacturer and cells were returned to the incubator for 4 hours. Plates were then allowed to equilibrate to room temperature and fluorescence was measured using a Perkin-Elmer EnVision. After completion of the fluorescence read, the liquid from each well was removed and the cells were washed with PBS. The Nano-Glo® HiBiT detection reagent was prepared according to the manufacturer's instructions and added to each well after the PBS wash was removed. Following incubation at room temperature for 45 minutes, the luminescence was read using the ultra-sensitive luminescence aperture on the Envision instrument.
Data analysis. Fluorescence values from the alamar blue treatment were normalized to the DMSO-only control for each compound titration.

T1 sequence (P01116 1-188 isoform P01116-2 G12D): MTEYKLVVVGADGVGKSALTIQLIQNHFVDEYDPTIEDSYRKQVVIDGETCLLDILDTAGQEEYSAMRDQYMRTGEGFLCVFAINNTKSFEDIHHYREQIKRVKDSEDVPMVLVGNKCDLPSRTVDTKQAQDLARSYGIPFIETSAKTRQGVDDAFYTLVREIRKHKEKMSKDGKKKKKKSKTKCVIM

Work on `C#Cc1c(F)ccc2cc(O)cc(-c3ncc4c(N5CC6CCC(C5)N6)nc(OCCN5CCC(COc6cc([C@@H](C(=O)N7C[C@H](O)C[C@H]7C(=O)N[C@@H](C)c7ccc(-c8ccnn8C)cc7)C(C)C)on6)CC5)nc4c3F)c12` (relative stereo) [Compound 86, (2S,4R)-1-[(2R*)-2-{3-[(1-{2-[(4-{3,8-diazabicyclo[3.2.1]octan-3-yl}-7-(8-ethynyl-7-fluoro-3-hydroxynaphthalen-1-yl)-8-fluoropyrido[4,3-d]pyrimidin-2-yl)oxy]ethyl}piperidin-4-yl)methoxy]-1,2-oxazol-5-yl}-3-methylbutanoyl]-4-hydroxy-N-[(1S)-1-[4-(1-methyl-1H-pyrazol-5-yl)phenyl]ethyl]pyrrolidine-2-carboxamide] yielded a Dmax of 80 to 100% and a DC50 of 1000 to 3000 nM.
`CCc1cccc2cccc(-c3ncc4c(N5CC6CCC(C5)N6)nc(OC[C@@]56CCCN5[C@H](COc5cc([C@H](C(=O)N7C[C@H](O)C[C@H]7C(=O)N[C@@H](C)c7ccc(-c8scnc8C)cc7)C(C)C)on5)CC6)nc4c3F)c12` [Compound 54, (2S,4R)-1-[(2R)-2-(3-{[(3S,7aS)-7a-{[(4-{3,8-diazabicyclo[3.2.1]octan-3-yl}-7-(8-ethylnaphthalen-1-yl)-8-fluoropyrido[4,3-d]pyrimidin-2-yl)oxy]methyl}-hexahydro-1H-pyrrolizin-3-yl]methoxy}-1,2-oxazol-5-yl)-3-methylbutanoyl]-4-hydroxy-N-[(1S)-1-[4-(4-methyl-1,3-thiazol-5-yl)phenyl]ethyl]pyrrolidine-2-carboxamide] was tested, and the Dmax was 80 to 100% and the DC50 was under 600 nM.
With `CCc1cccc2cc(O)cc(-c3ncc4c(N5CC6CCC(C5)N6)nc(OC[C@@]56CCCN5[C@H](COC(=O)N(C)Cc5cc([C@H](C(=O)N7C[C@H](O)C[C@H]7C(=O)N[C@@H](C)c7ccc(-c8scnc8C)cc7)C(C)C)on5)CC6)nc4c3F)c12` [Compound 90, [(3S,7aS)-7a-{[(4-{3,8-diazabicyclo[3.2.1]octan-3-yl}-7-(8-ethyl-3-hydroxynaphthalen-1-yl)-8-fluoropyrido[4,3-d]pyrimidin-2-yl)oxy]methyl}-hexahydro-1H-pyrrolizin-3-yl]methyl N-({5-[(2R)-1-[(2S,4R)-4-hydroxy-2-{[(1S)-1-[4-(4-methyl-1,3-thiazol-5-yl)phenyl]ethyl]carbamoyl}pyrrolidin-1-yl]-3-methyl-1-oxobutan-2-yl]-1,2-oxazol-3-yl}methyl)-N-methylcarbamate] the Dmax was 80 to 100% and the DC50 was under 600 nM.
For `CCc1cccc2cc(O)cc(-c3ncc4c(N5CC6CCC(C5)N6)nc(OCCC5CCN(CC6CN(c7cc([C@H](C(=O)N8C[C@H](O)C[C@H]8C(=O)N[C@@H](C)c8ccc(-c9scnc9C)cc8)C(C)C)on7)C6)CC5)nc4c3F)c12` [Compound 218, (2S,4R)-1-[(2R)-2-(3-{3-[(4-{2-[(4-{3,8-diazabicyclo[3.2.1]octan-3-yl}-7-(8-ethyl-3-hydroxynaphthalen-1-yl)-8-fluoropyrido[4,3-d]pyrimidin-2-yl)oxy]ethyl}piperidin-1-yl)methyl]azetidin-1-yl}-1,2-oxazol-5-yl)-3-methylbutanoyl]-4-hydroxy-N-[(1S)-1-[4-(4-methyl-1,3-thiazol-5-yl)phenyl]ethyl]pyrrolidine-2-carboxamide], the Dmax was 80 to 100% and the DC50 was under 600 nM.
With `CCc1cccc2cc(O)cc(-c3ncc4c(N5CC6CCC(C5)N6)nc(OCCN5CCC(CN6CC(Oc7cc([C@H](C(=O)N8C[C@H](O)C[C@H]8C(=O)N[C@@H](C)c8ccc(-c9scnc9C)cc8)C(C)C)on7)C6)CC5)nc4c3F)c12` [Compound 244, (2S,4R)-1-[(2R)-2-[3-({1-[(1-{2-[(4-{3,8-diazabicyclo[3.2.1]octan-3-yl}-7-(8-ethyl-3-hydroxynaphthalen-1-yl)-8-fluoropyrido[4,3-d]pyrimidin-2-yl)oxy]ethyl}piperidin-4-yl)methyl]azetidin-3-yl}oxy)-1,2-oxazol-5-yl]-3-methylbutanoyl]-4-hydroxy-N-[(1S)-1-[4-(4-methyl-1,3-thiazol-5-yl)phenyl]ethyl] pyrrolidine-2-carboxamide] the Dmax was 80 to 100% and the DC50 was under 600 nM.
`Cc1ncsc1-c1ccc([C@H](C)NC(=O)[C@@H]2C[C@@H](O)CN2C(=O)[C@H](c2cc(OC3CN(C(=O)OC[C@@H]4CC[C@@]5(COc6nc(N7CC8CCC(C7)N8)c7cnc(-c8cc(O)cc(Cl)c8C8CC8)c(F)c7n6)CCCN45)C3)no2)C(C)C)cc1` [Compound 322] was tested, and the Dmax was 60 to 80% and the DC50 was 600 to 1000 nM.
`CCc1cccc2cc(O)cc(-c3ncc4c(N5CC6CCC(C5)N6)nc(OCCN5CCC(O)(CC6CCN(c7cc([C@@H](C(=O)N8C[C@H](O)C[C@H]8C(=O)N[C@@H](C)c8ccc(-c9scnc9C)cc8)C(C)C)on7)CC6)CC5)nc4c3F)c12` [Compound 205, (2S,4R)-1-[(2S)-2-(3-{4-[(1-{2-[(4-{3,8-diazabicyclo[3.2.1]octan-3-yl}-7-(8-ethyl-3-hydroxynaphthalen-1-yl)-8-fluoropyrido[4,3-d]pyrimidin-2-yl)oxy]ethyl}-4-hydroxypiperidin-4-yl)methyl]piperidin-1-yl}-1,2-oxazol-5-yl)-3-methylbutanoyl]-4-hydroxy-N-[(1S)-1-[4-(4-methyl-1,3-thiazol-5-yl)phenyl]ethyl]pyrrolidine-2-carboxamide] showed a Dmax of 20 to 60% and a DC50 of 1000 to 3000 nM.
Work on `Cc1ncsc1-c1ccc([C@H](C)NC(=O)[C@@H]2C[C@@H](O)CN2C(=O)[C@H](c2cc(OC3CN(C(=O)OC[C@@H]4CC[C@@H](COc5nc(N6CC7CCC(C6)N7)c6cnc(-c7cc(O)cc(Cl)c7C7CC7)c(F)c6n5)N4C)C3)no2)C(C)C)cc1` [Compound 287] yielded a Dmax of under 20% and a DC50 of 1000 to 3000 nM.
Compound `CCc1cccc2cc(O)cc(-c3ncc4c(N5CC6CCC(C5)N6)nc(OCCN5CC[C@@H]6CN(c7cc([C@@H](C(=O)N8C[C@H](O)C[C@H]8C(=O)N[C@@H](C)c8ccc(-c9scnc9C)cc8)C(C)C)on7)C[C@@H]6C5)nc4c3F)c12` (relative stereo) [Compound 72, (2S,4R)-1-[(2R*)-2-{3-[(3aR**,7aR***)-5-{2-[(4-{3,8-diazabicyclo[3.2.1]octan-3-yl}-7-(8-ethyl-3-hydroxynaphthalen-1-yl)-8-fluoropyrido[4,3-d]pyrimidin-2-yl)oxy]ethyl}-octahydro-1H-pyrrolo[3,4-c]pyridin-2-yl]-1,2-oxazol-5-yl}-3-methylbutanoyl]-4-hydroxy-N-[(1S)-1-[4-(4-methyl-1,3-thiazol-5-yl)phenyl]ethyl]pyrrolidine-2-carboxamide] has a Dmax of under 20% and a DC50 of over 3000 nM.
Work on `C#Cc1c(F)ccc2cc(O)cc(-c3ncc4c(N5CC6CCC(C5)N6)nc(OC[C@]56CCCN5[C@H](COc5cc([C@@H](C(=O)N7C[C@H](O)C[C@H]7C(=O)N[C@@H](C)c7ccc(-c8scnc8C)cc7)C(C)C)on5)CC6)nc4c3F)c12` [Compound 312, (2S,4R)-1-[(2S)-2-[3-[[(3S,8R)-8-[[4-(3,8-diazabicyclo[3.2.1]octan-3-yl)-7-(8-ethynyl-7-fluoro-3-hydroxy-1-naphthyl)-8-fluoro-pyrido[4,3-d]pyrimidin-2-yl]oxymethyl]-1,2,3,5,6,7-hexahydropyrrolizin-3-yl]methoxy]isoxazol-5-yl]-3-methyl-butanoyl]-4-hydroxy-N-[(1S)-1-[4-(4-methylthiazol-5-yl)phenyl]ethyl]pyrrolidine-2-carboxamide] yielded a Dmax of 20 to 60% and a DC50 of 1000 to 3000 nM.
For `CCc1cccc2cc(O)cc(-c3ncc4c(N5CC6CCC(C5)N6)nc(OC[C@@]56CCCN5[C@H](CN5CCC(COc7cc([C@@H](C(=O)N8C[C@H](O)C[C@H]8C(=O)N[C@@H](C)c8ccc(-c9scnc9C)cc8)C(C)C)on7)CC5)CC6)nc4c3F)c12` [Compound 97, (2S,4R)-1-[(2S)-2-{3-[(1-{[(3S,7aS)-7a-{[(4-{3,8-diazabicyclo[3.2.1]octan-3-yl}-7-(8-ethyl-3-hydroxynaphthalen-1-yl)-8-fluoropyrido[4,3-d]pyrimidin-2-yl)oxy]methyl}-hexahydro-1H-pyrrolizin-3-yl]methyl}piperidin-4-yl)methoxy]-1,2-oxazol-5-yl}-3-methylbutanoyl]-4-hydroxy-N-[(1S)-1-[4-(4-methyl-1,3-thiazol-5-yl)phenyl]ethyl]pyrrolidine-2-carboxamide], the Dmax was 20 to 60% and the DC50 was 600 to 1000 nM.
With `Cc1ncsc1-c1ccc([C@H](C)NC(=O)[C@@H]2C[C@@H](O)CN2C(=O)[C@@H](c2cc(OC3CN(C(=O)OC[C@@H]4CC[C@@H](COc5nc(N6CC7CCC(C6)N7)c6cnc(-c7cc(O)cc(Cl)c7C7CC7)c(F)c6n5)N4C)C3)no2)C(C)C)cc1` [Compound 285] the Dmax was 80 to 100% and the DC50 was under 600 nM.
`CCc1cccc2cc(O)cc(-c3ncc4c(N5CC6CCC(C5)N6)nc(OCCN5CCC(C6CN(c7cc([C@@H](C(=O)N8C[C@H](O)C[C@H]8C(=O)N[C@@H](C)c8ccc(-c9scnc9C)cc8)C(C)C)on7)C6)CC5)nc4c3F)c12` (single isomer, unassigned) [Compound 277] showed a Dmax of 20 to 60% and a DC50 of 1000 to 3000 nM.
